Test results: patent US8188064B2, “Vitamin D analogs for obesity prevention and treatment” (Wisconsin Alumni Research Foundation, priority 2003, dated 2012)
Entries after “also recorded” stand apart in the source; their conditions may differ. Read-outs that look alike come from different tables or passages of the source.

Legend:
[1] = molecular target: T1, full-length recombinant rat vitamin D receptor (Rattus norvegicus, UniProt P13053); experiment: Vitamin D receptor binding (competition with 3H-1,25(OH)2D3); settings: result in words, competition for tritiated hormone binding
T1 construct: Full-length recombinant rat receptor was expressed in E. coli; histidine tag (C); made in house; host or cells: E. coli BL21(DE3) Codon Plus RIL
T1 sequence (P13053 1-423): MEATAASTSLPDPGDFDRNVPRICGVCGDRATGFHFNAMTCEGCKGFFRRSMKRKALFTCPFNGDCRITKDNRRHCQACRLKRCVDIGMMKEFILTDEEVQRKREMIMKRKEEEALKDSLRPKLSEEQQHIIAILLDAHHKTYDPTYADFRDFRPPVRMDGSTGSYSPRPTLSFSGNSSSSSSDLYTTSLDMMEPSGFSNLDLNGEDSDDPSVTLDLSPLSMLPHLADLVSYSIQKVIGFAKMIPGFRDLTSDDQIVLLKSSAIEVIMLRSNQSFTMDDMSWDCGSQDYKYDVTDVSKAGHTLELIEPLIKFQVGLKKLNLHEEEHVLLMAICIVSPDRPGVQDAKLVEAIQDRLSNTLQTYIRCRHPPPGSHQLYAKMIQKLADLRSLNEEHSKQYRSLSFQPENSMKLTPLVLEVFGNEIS
Method in brief: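 Purified His-tagged receptor from E. coli, diluted in TEDK50 (pH 7.4, 5 mM DTT, 150 mM KCl) with 0.1% Chaps, set so ≤20% of radioligand bound. Competition against 1 nM final 3H-1,25(OH)2D3, ethanol ≤10%, overnight on ice; bound ligand collected on hydroxylapatite, washed, counted by scintillation.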

[2] = Intestinal calcium transport (everted gut sac); format: in vivo; settings: result in words, vitamin D deficient rat model, compared to 1α,25(OH)2D3
Method in brief: (§1)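 Male weanling Sprague-Dawley rats, vitamin D-deficient, cycled through 0.47% and 0.02% Ca diets, dosed during the last 0.02% Ca week. Four ip doses ~24 h apart; serum calcium measured 24 h after last dose. First 10 cm of intestine taken for everted gut sac calcium transport.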

[3] = Bone calcium mobilization (serum calcium on low calcium diet); format: in vivo, rat; settings: result in words, vitamin D deficient rat model, compared to 1α,25(OH)2D3
Method in brief: as §1

[4] = Hypercalcemia / serum calcium analysis; format: in vivo, rat; settings: normal vitamin D sufficient rats, very high oral doses
[5] = tested on: 3T3-L1 cells; experiment: Inhibition of 3T3-L1 differentiation into mature adipocytes (Oil-Red-O staining); format: cell-based, murine; settings: for inhibition of differentiation of 3T3-L1 cells into mature adipocytes (Oil-Red-O staining): result in words, MDI-treated cells, staining at day 10
[6] = tested on: SCD-1 mRNA; experiment: Inhibition of SCD-1 mRNA induction in 3T3-L1 cells (RT-PCR); format: cell-based, murine; settings: for EC50: Mus musculus, 3T3-L1, 96 h, read-out: EC50 for inhibition of murine 3T3-L1 expression of SCD-1 mRNA; for inhibition of SCD-1 mRNA induction: result in words, MDI-treated 3T3-L1 cells
Excerpt: Chomczynski, P. et al., Anal. […] NO: 4)).

[7] = tested on: PPARγ2 mRNA; experiment: PPARγ2 mRNA induction by MDI in 3T3-L1 cells (RT-PCR); format: cell-based, murine; settings: compound present at 1×10^−8 M
Description: RT-PCR was carried out as described above with 0.5 μM each primer, 2 mM MgCl2, and 1×SYBR Green master mix.

[8] = tested on: C/EBPα mRNA; experiment: C/EBPα mRNA induction by MDI in 3T3-L1 cells (RT-PCR); format: cell-based, murine; settings: compound present at 1×10^−8 M
Description: Analysis of C/EBPα was determined by PCR using murine primers (upstream=CGA GTA GGG GGA GCA AAA A (SEQ ID NO: 7); downstream=GCA AAA AGC MG GGA TTA GGA G (SEQ ID NO: 8)). RT-PCR was carried out as described above with 0.5 μM each primer, 2 mM MgCl2, and 1×SYBR Green master mix. The murine C/EBPα primers have a 60° C. annealing temperature and a 12 second extension time.

[9] = tested on: Human promyelocytic leukemia (HL60) cells; experiment: HL-60 differentiation (nitro blue tetrazolium reduction); format: cell-based; settings: concentration 1×10^−7 M
Method in brief: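 Four-day drug treatment of cells grown in RPMI-1640/10% FBS at 37 °C, 5% CO2, ethanol ≦0.2%; then NBT reduction, percent of 200 cells with black-blue formazan.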

With `C=C1[C@H](O)CC(=C/C=C2\CCC[C@]3(C)[C@@H]([C@@H](C)CC)CC[C@@H]23)C[C@H]1O` [2-MbisP] the “binding to the vitamin D receptor, compared to 1α,25(OH)2D3” value ([1]; listed as 1α-(20S)2-MbisP) was “nearly the same affinity”, the “binding to the vitamin D receptor, compared to 1α,25(OH)2D3” value ([1]; listed as (20S)2-MbisP) was “as or nearly effective as calcitriol” and the “intestinal calcium transport activity” value [2] was “little, if any, activity”. The “bone calcium mobilization activity” value [3] was “little, if any, activity”, the “increase in serum calcium” value [4] was “without producing an increase in serum calcium” and the “difference in potency from the native hormone in inhibiting differentiation” value ([5]; MDI-induced 3T3-L1 cells) was under 0.5 log unit. For the same compound, the “inhibition of differentiation of 3T3-L1 cells into mature adipocytes (Oil-Red-O staining)” value [5] was “inhibit; also recorded: effective”, the “inhibition of differentiation of 3T3-L1 cells into mature adipocytes (Oil-Red-O staining)” value ([5]; listed as 1α-(20S)2-MbisP) was “nearly equipotent” and the “inhibition of differentiation of 3T3-L1 cells into mature adipocytes (Oil-Red-O staining)” value ([5]; listed as (1α,20S)2MbisP) was “inhibition”. For the same compound, the “inhibition of differentiation of 3T3-L1 cells into mature adipocytes (Oil-Red-O staining)” value ([5]; listed as (20S)2-MbisP) was “nearly as potent as the native hormone”, the “inhibition of differentiation of 3T3-L1 cells into mature adipocytes (Oil-Red-O staining)” value ([5]; listed as (20S)2M-bisP) was “inhibition” and the “inhibition of differentiation of 3T3-L1 cells into mature adipocytes (Oil-Red-O staining)” value ([5]; listed as (20S)2MbisP) was “inhibition”. The “inhibition of differentiation of MDI-treated 3T3-L1 cells (oil-red-O staining)” value ([5]; tested at 1×10^−8.5 M) was “active”, the EC50 ([6]; SCD-1 mRNA at 4 days) was about 0.54 nM and the “times less potent than the native hormone 1,25-(OH)2D3” value ([6]; inhibition of SCD-1 mRNA induction) was 2 to 3 times. For the same compound, the “inhibition of SCD-1 mRNA induction” value ([6]; listed as (1α,20S)2MbisP) was “inhibition”, the “inhibition of SCD-1 mRNA induction” value ([6]; listed as (20S)2-MbisP) was “nearly as potent as the native hormone” and the “inhibition of SCD1 mRNA induction” value ([6]; tested at 1×10^−8.5 M) was “active”. The “PPARγ mRNA induction by MDI” value [7] was “not induced” and the “C/EBPα mRNA induction by MDI” value [8] was “not induced”.
With `C=C1/C(=C\C=C2/CCC[C@]3(C)[C@@H]([C@H](C)CCCC(C)(C)O)CC[C@@H]23)C[C@@H](O)C[C@@H]1O` [1α,25(OH)2D3, 1α,25-dihydroxyvitamin D3, reference compound] the “cells induced to differentiate in the NBT assay” value [9] was about 90%, the “intestinal calcium transport activity” value ([2]; listed as calcitriol) was “quite potent; also recorded: active” and the “bone calcium mobilization activity” value ([3]; listed as calcitriol) was “quite potent; also recorded: active”. The “increase in serum calcium” value [4] was “frank hypercalcemia and even death”, the “inhibition of differentiation of 3T3-L1 cells into mature adipocytes (Oil-Red-O staining)” value [5] was “inhibit; also recorded: inhibition” and the EC50 [6] was 0.2 nM. For the same compound, the “inhibition of SCD-1 mRNA induction” value [6] was “inhibition”, the “PPARγ mRNA induction by MDI” value [7] was “not induced” and the “C/EBPα mRNA induction by MDI” value [8] was “not induced”.
